This note sets out measurements from patent US20230062486A1, “KRAS G12C INHIBITOR AND PHARMACEUTICAL USE THEREOF” (Betta Pharmaceuticals Co., LTD, priority 2019, published 2023).

In one experiment the test system is MIA-PACA-2 cells. As to the kind of experiment: Cell proliferation assay, MIA-PACA-2 cells (Cell-titer Glo). Format: cell-based. The settings on record: Homo sapiens; inhibiting MIA-PACA-2 cells, 96-well ultra-low adsorption plate, 96 h incubation, Cell-titer Glo luminescence. The protocol:
(§1) Pave the MIA-PACA-2 cells into a 96-well ultra-low adsorption plate at 600 cells, 160 μL/well. After incubating overnight, compound solutions of gradient concentration was prepared, and added 40 μL of DMSO solution of the test compound of each concentration to the cells of each well. The final concentration of the compound is 10000, 2000, 400, 80, 16, 3.2, 0.64, 0.12, 0.025, 0 nM (the final concentration of DMSO is 0.25%). Incubated for 96 h at 37° C. and 5% CO2. 50 μL of Cell-titer Glo working solution was added to each well, shaked and mixed, and incubated at room temperature for 10 minutes. The multi-functional microplate reader read the luminescence value, and converted the luminescence value reading into inhibition percentage.
(§2) Inhibition percentage=(maximum value−reading)/(maximum value−minimum value)*100.
(§3) The “maximum value” was the DMSO control, the “minimum value” indicates the cell-free control group.
(§4) Graphpad Prism software was used to perform curve fitting and obtain IC50 value.
Refer to Table 2 for the IC50 data of some compounds in the examples inhibiting MIA-PACA-2 cells.

The next experiment concerns H358 cells. The experiment is described as follows: Cell proliferation assay, H358 cells (Cell-titer Glo). Format: cell-based. The settings on record: Homo sapiens, NCI-H358; inhibiting H358 cells, 96-well ultra-low adsorption plate, 96 h incubation, Cell-titer Glo luminescence. Here is the method: as §1, with “the H358” for “the MIA-PACA-2”, “cells on” for “cells into”, “plate with 2000 cells and 190” for “plate at 600 cells, 160”, “added 10” for “added 40”, “10000, 3333.3, 1111.1, 370.4, 123.5, 41.2, 13.7, 4.6, 1.5,” for “10000, 2000, 400, 80, 16, 3.2, 0.64, 0.12, 0.025,”
as §2, §3, §4
Refer to table 3 for the IC50 data of some compounds in the Examples for inhibiting H358 cells.

Broadly, the IC50 is the concentration needed to halve the response being measured. For `C=CC(=O)N1CCn2c(nnc2-c2cc(F)c(-c3c(O)cccc3F)c(Cl)c2)C1` [Example 1, 1-(3-(2-chloro-2′,6-difluoro-6′-hydroxy-[1,1′-biphenyl]-4-yl)-5,6-dihydro-[1,2,4]triazolo[4,3-a]pyrazin-7(8H)-yl)prop-2-en-1-one], the IC50 in the experiment with MIA-PACA-2 cells and in the experiment with H358 cells was 1 to 10 µM each time. With `C=CC(=O)N1CCn2c(nnc2-c2cc(F)c(-c3c(O)ccc(Cl)c3F)c(Cl)c2)C1` [Example 2, 1-(3-(2,3′-dichloro-2′,6-difluoro-6′-hydroxy-[1,1′-biphenyl]-4-yl)-5,6-dihydro-[1,2,4]triazolo[4,3-a]pyrazin-7(8H)-yl)prop-2-en-1-one], the IC50 with MIA-PACA-2 cells and in the experiment on H358 cells was no more than 1 µM in each case. Take `C=CC(=O)N1CCn2c(nnc2-c2cc(F)c(-c3c(O)c(Cl)cc(Cl)c3F)c(Cl)c2)C1` [Example 3, 1-(3-(2,3′,5′-trichloro-2′,6-difluoro-6′-hydroxy-[1,1′-biphenyl]-4-yl)-5,6-dihydro-[1,2,4]triazolo[4,3-a]pyrazin-7(8H)-yl)prop-2-en-1-one]: the IC50 in the experiment with MIA-PACA-2 cells and in the experiment with H358 cells was no more than 1 µM throughout.

As for `C=C(F)C(=O)N1CCn2c(nnc2-c2cc(F)c(-c3c(O)cccc3F)c(Cl)c2)C1` [Example 4, 1-(3-(2-chloro-2′,6-difluoro-6′-hydroxy-[1,1′-biphenyl]-4-yl)-5,6-dihydro-[1,2,4]triazolo[4,3-a]pyrazin-7(8H)-yl)-2-fluoroprop-2-en-1-one], the IC50 in the experiment with MIA-PACA-2 cells and in the experiment on H358 cells was greater than 10 µM in each case.

On to `C=CC(=O)N1CCn2c(nnc2-c2cc(F)c(-c3c(C)ccc4[nH]ncc34)c(Cl)c2)C1` [Example 5, 1-(3-(3-chloro-5-fluoro-4-(5-methyl-1H-indazol-4-yl)phenyl)-5,6-dihydro-[1,2,4]triazolo[4,3-a]pyrazin-7(8H)-yl)prop-2-en-1-one], for which the IC50 in the experiment with MIA-PACA-2 cells and with H358 cells was 1 to 10 µM in each case. Take `C=CC(=O)N1CCn2c(-c3cc(F)c(-c4c(O)cccc4F)c(Cl)c3)cnc2C1` [Example 6, 1-(3-(2-chloro-2′,6-difluoro-6′-hydroxy-[1,1′-biphenyl]-4-yl)-5,6-dihydroimidazo[1,2-a]pyrazin-7(8H)-yl)prop-2-en-1-one]: the IC50 is no more than 1 µM in the experiment on MIA-PACA-2 cells and 1 to 10 µM in the experiment with H358 cells. For `C=CC(=O)N1CCn2c(nnc2-c2cc(F)c(-c3c(F)ccc(Cl)c3N)c(Cl)c2)C1` [Example 7, 1-(3-(2′-amino-2,3′-dichloro-6,6′-difluoro-[1,1′-biphenyl]-4-yl)-5,6-dihydro-[1,2,4]triazolo[4,3-a]pyrazin-7(8H)-yl)prop-2-en-1-one], in that order: greater than 10 µM and greater than 10 µM. Taken in the same sequence, the figures for `C=CC(=O)N1CCn2c(cnc2-c2cc(F)c(-c3c(O)cccc3F)c(Cl)c2)C1` [Example 8, 1-(3-(2-chloro-2′,6-difluoro-6′-hydroxy-[1,1′-biphenyl]-4-yl)-5,6-dihydroimidazo[1,5-a]pyrazin-7(8H)-yl)prop-2-en-1-one] were 1 to 10 µM and 1 to 10 µM. The molecule `C=CC(=O)N1CCn2c(cnc2-c2cc(F)c(-c3c(F)ccc(Cl)c3O)c(Cl)c2)C1` [Example 9, 1-(3-(2,3′-dichloro-6,6′-difluoro-2′-hydroxy-[1,1′-biphenyl]-4-yl)-5,6-dihydroimidazo[1,5-a]pyrazin-7(8H)-yl)prop-2-en-1-one] registered an IC50 in the experiment on MIA-PACA-2 cells of 1 to 10 µM.

`C=CC(=O)N1CCn2c(cnc2-c2cc(F)c(-c3c(O)c(Cl)cc(Cl)c3F)c(Cl)c2)C1` [Example 10, 1-(3-(2,3′,5′-trichloro-2′,6-difluoro-6′-hydroxy-[1,1′-biphenyl]-4-yl)-5,6-dihydroimidazo[1,5-a]pyrazin-7(8H)-yl)prop-2-en-1-one]: the IC50 in the experiment on MIA-PACA-2 cells is greater than 10 µM. Still for that read-out and setting: next, `C=CC(=O)N1CCn2c(nnc2-c2cc(F)c(-c3c(O)cccc3F)c(C=C)c2)C1` [Example 11, 1-(3-(2,2′-difluoro-6′-hydroxy-6-vinyl-[1,1′-biphenyl]-4-yl)-5,6-dihydro-[1,2,4]triazolo[4,3-a]pyrazin-7(8H)-yl)prop-2-en-1-one]: greater than 10 µM.

`C=CC(=O)N1CCn2c(nc(-c3ccccc3C(C)C)c2-c2cc(F)c(-c3c(O)cccc3F)c(Cl)c2)C1` [Example 12, 1-(3-(2-chloro-2′,6-difluoro-6′-hydroxy-[1,1′-biphenyl]-4-yl)-2-(2-isopropylphenyl)-5,6-dihydroimidazo[1,2-a]pyrazin-7(8H)-yl)prop-2-en-1-one] registered an IC50 in the experiment with MIA-PACA-2 cells greater than 10 µM. `C=CC(=O)N1CCn2c(nc(-c3ccccc3C(C)C)c2-c2cc(F)c(-c3c(F)ccc(Cl)c3O)c(Cl)c2)C1` [Example 13, 1-(3-(2,3′-dichloro-6,6′-difluoro-2′-hydroxy-[1,1′-biphenyl]-4-yl)-2-(2-isopropylphenyl)-5,6-dihydroimidazo[1,2-a]pyrazin-7(8H)-yl)prop-2-en-1-one] registered an IC50 in the experiment on MIA-PACA-2 cells of no more than 1 µM. The same measure, in the same setting: with `C=CC(=O)N1CCn2c(nc(-c3ccccc3C(C)C)c2-c2cc(F)c(-c3c(O)c(Cl)cc(Cl)c3F)c(Cl)c2)C1` [Example 14, 1-(2-(2-isopropylphenyl)-3-(2,3′,5′-trichloro-2′,6-difluoro-6′-hydroxy-[1,1′-biphenyl]-4-yl)-5,6-dihydroimidazo[1,2-a]pyrazin-7(8H)-yl)prop-2-en-1-one] the figure was 1 to 10 µM; with `C=CC(=O)N1CCn2c(-c3cc(F)c(-c4c(F)ccc(Cl)c4O)c(Cl)c3)cnc2C1` [Example 15, 1-(3-(2,3′-dichloro-6,6′-difluoro-2′-hydroxy-[1,1′-biphenyl]-4-yl)-5,6-dihydroimidazo[1,2-a]pyrazin-7(8H)-yl)prop-2-en-1-one], greater than 10 µM; with `C=CC(=O)N1CCn2c(nnc2-c2cc(Cl)c(-c3c(F)ccc(Cl)c3O)c(OCC(F)(F)F)c2)C1` [Example 16, 1-(3-(2,3′-dichloro-6′-fluoro-2′-hydroxy-6-(2,2,2-trifluoroethoxy)-[1,1′-biphenyl]-4-yl)-5,6-dihydro-[1,2,4]triazolo[4,3-a]pyrazin-7(8H)-yl)prop-2-en-1-one], 1 to 10 µM.

As for `C=CC(=O)N1CCn2c(nnc2-c2cc(Cl)c(-c3c(O)cccc3F)c(OCC(F)(F)F)c2)C1` [Example 17, 1-(3-(2-chloro-2′-fluoro-6′-hydroxy-6-(2,2,2-trifluoroethoxy)-[1,1′-biphenyl]-4-yl)-5,6-dihydro-[1,2,4]triazolo[4,3-a]pyrazin-7(8H)-yl)prop-2-en-1-one], the IC50 in the experiment with MIA-PACA-2 cells was no more than 1 µM. On the same count and under the same terms, with `C=CC(=O)N1CCn2c(nc(C(F)(F)F)c2-c2cc(F)c(-c3c(F)ccc(Cl)c3O)c(Cl)c2)C1` [Example 18, 1-(3-(2,3′-dichloro-6,6′-difluoro-2′-hydroxy-[1,1′-biphenyl]-4-yl)-2-(trifluoromethyl)-5,6-dihydroimidazo[1,2-a]pyrazin-7(8H)-yl)prop-2-en-1-one] the figure was greater than 10 µM.
